Test results as given in article PMC10033663, “Acute pharmacological profile of 2C-B-Fly-NBOMe in male Wistar rats—pharmacokinetics, effects on behaviour and thermoregulation” (Frontiers in Pharmacology, 2023).
Where two headings read alike, the source gives them in different places.

Key:
[1] = Pharmacokinetics of 2C-B-Fly-NBOMe in blood serum and brain tissue (LC/MS); format: in vivo, male Wistar rats; conditions: for k el: read-out: ke (h^-1) elimination rate constant (converted)
Protocol: For the pharmacokinetic study, rats were treated with 1 mg/kg s. c. of 2C-B-Fly-NBOMe and then sacrificed by decapitation after 0.5, 1, 2, 4, 8 and 24 h (n = 8 per time point). Collected blood was left to clot in a refrigerator for 1 h, then centrifuged for 10 min at 1500 g, 10°C, and the separated serum was collected. Whole brains were excised manually using surgical instruments. All serum and brain samples were stored at −20°C until the analysis.
200 μl of blood serum was diluted in a microtube with 200 μl of 1% ammonia solution and homogenized in a Bullet Blender tissue homogenizer (speed 2, time 5 min). Next, 400 μl of ethyl acetate was added by the automatic dispenser and the whole content was homogenized again (speed 3, time 5 min), additional 400 μl of ethyl acetate was added and the sample was homogenized for the last time. The homogenate was centrifuged (10 min, 25°C, 12,000 RPM), 600 μl of the top layer was transferred into a new microtube and 50 μl of 10% formic acid solution was added. After proper shaking, the solution was evaporated in the CentriVap concentrator. The residue was then dissolved in 100 μl of methanol and shaken for 10 min. Prior to the analysis, the solution was diluted 1:1 in deionized water, mixed and centrifuged.
100 µL of 1% ammonium hydroxide solution was added to 200 mg of brain tissue. A mixture was homogenized with 200 mg of zirconium oxide beads in a BulletBlender for 10 min (speed 5). 400 μL of ethyl acetate was added to the mixture and homogenized (BulletBlender, speed 3, time 5 min). Additional 400 µL of ethyl acetate was added to the mixture and homogenized (BulletBlender, speed 3, time 5 min). Samples were centrifuged (10 min, 25°C, 12,000 RPM), 400 µL of supernatant was acidified and completely evaporated (Centrivap Concentrator). The dry residue was reconstituted with 400 µL of methanol. Prior to the analysis, 250 µL of the solution was diluted with 750 µL of water, mixed, and centrifuged (0.2 µm PVDF filter).
The samples were analysed using ultra-high performance liquid chromatography-tandem mass spectrometry instrumentation (1,290 Infinity—6,460 Triple Quadrupole LC/MS Agilent Technologies with AJS electrospray ionization source). A column Kinetex Biphenyl (100 × 2.1 mm, 2.6 µm) with a pre-column was used for a chromatographic separation at 35°C with gradient elution in a system of 5 mM ammonium formate with 0.01% (v/v) formic acid (mobile phase A) and methanol with 0.01% (v/v) formic acid (mobile phase B). The gradient started at 10% B, increased from 10% to 50% B in 0.5 min and from 50% to 100% B in 1.5 min, held for 2 min at 100% B, decreased to 10% B in 0.5 min and held for 2 min at 10% B. Data were acquired in positive electrospray ionization (ESI) mode using a multiple reaction monitoring method, one quantification ion and three confirmation ions were used. 2C-B-Fly-NBOMe was quantified using an external matrix-matched calibration. The limit of quantification was 1 ng/ml (1 ng/g for brain tissue). The matrix-matched calibration was performed in duplicates; real samples were also processed in duplicates.
For the pharmacokinetic data, a one-compartment model with a first-order absorption equation ([Wijnand, 1988]) was fitted using a cubic spline interpolation: Ct=D·ka·F/V/ka−ke×expke·t−exp(−ka·t Where C = 2C-B-Fly-NBOMe concentration, t = time, D = dose, ka = absorption rate constant, F = bioavailability, V = volume of distribution, ke = elimination rate constant.
The half-life of the drug elimination was calculated using Package PKNCA version 0.9.4 implemented in R software ([Buckeridge et al., 2015]).

male Wistar rats = experiment: Observation of 5-HT2A-related behaviour (head-twitch response, wet dog shakes); conditions: rat, in vivo
[2] = three different systems; ref Nykodemová et al., 2021; cited from earlier work
[3] = brain, 1 mg/kg s. c., mean ± SEM
[4] = male, Wistar, rat, sc, brain, 1 mg/kg s. c., mean ± SEM
[5] = male, Wistar, rat, sc, serum, 1 mg/kg s. c., mean ± SEM
[6] = serum, 1 mg/kg s. c., mean ± SEM

For `COc1ccccc1CNCCc1c2c(c(Br)c3c1OCC3)OCC2` [2C-B-Fly-NBOMe], the Maximum mean concentration ([1]; blood serum, 1 mg/kg s. c.) was 28 ng/mL, the “Time of maximum mean concentration” value ([1]; blood serum, 1 mg/kg s. c.) was at most 0.5 h and the “Time of peak drug concentration” value ([1]; brain tissue, 1 mg/kg s. c.) was 60 min. For the same compound, the “passage through the blood-brain barrier” value ([1]; brain versus serum concentration, 1 mg/kg s. c.) was “readily passes through the blood-brain barrier”, the AUC0-24 h [1, 3] was 826.3 ± 112.6 ng·h/g and the “ka (h^-1) absorption rate constant” value [1, 3] was 0.685 ± 0.034 h⁻¹. The Tmax ([1]; male, Wistar, rat, sc, brain, 1 mg/kg s. c.) was 1.1 h, the half-life ([1]; male, Wistar, rat, sc, brain, 1 mg/kg s. c., Table 1, read-out: t1/2 (converted)) was 3.2 h and the Cmax [1, 4] was 159 ± 15.3 ng/g. For the same compound, the k el [1, 4] was 0.655 h⁻¹, the Tmax ([1]; male, Wistar, rat, sc, serum, 1 mg/kg s. c.) was 0.8 h and the half-life ([1]; male, Wistar, rat, sc, serum, 1 mg/kg s. c., Table 1, read-out: t1/2 (converted)) was 2.55 h. The Cmax [1, 5] was 28.4 ± 6.33 ng/mL, the bioavailability ([1]; male, Wistar, rat, sc, serum, 1 mg/kg s. c., mean ± SEM, one-compartment model, read-out: F (%) bioavailability) was 96.1 ± 4.8% and the AUC(0-t) ([1]; male, Wistar, rat, sc, serum, 1 mg/kg s. c., mean ± SEM, read-out: AUC0-24 h) was 115 ± 25.6 ng·h/mL. The k el [1, 5] was 0.733 h⁻¹, the half-life ([1]; male, Wistar, rat, subcutaneous, blood serum, 1 mg/kg s. c., read-out: half-life of elimination (converted)) was 1.56 h and the half-life ([1]; male, Wistar, rat, subcutaneous, brain, 1 mg/kg s. c., read-out: half-life of elimination (converted)) was 2.4 h. The concentration at 8 h ([1]; male, Wistar, rat, subcutaneous, brain, 8 h after 1 mg/kg s. c.) was 21 ng/g, the “Time of peak drug concentration” value ([1]; serum, 1 mg/kg s. c.) was 30 min and the “V d (mL) volume of distribution” value [1, 6] was 7.231 ± 0.362 mL. The “ka (h^-1) absorption rate constant” value [1, 6] was 0.731 ± 0.036 h⁻¹, the “presence in serum after 8 h” value ([1]; serum, 8 h after 1 mg/kg s. c.) was “almost undetectable” and the “behaviour typical of 5-HT2A receptor activation (head-twitch response or wet dog shakes)” value (male Wistar rats) was “did not demonstrate any behaviour”. For the same compound, the “number of phase I metabolites” value [2] was “thirty-five” and the “number of phase II metabolites” value [2] was “nine”.
